Here are results for six molecules from article PMC9532399, “The lysosomal transporter TAPL has a dual role as peptide translocator and phosphatidylserine floppase” (Nature Communications, 2022).

The chains are these.
B1: mouse TAPL truncation mutant devoid of the N-terminal 142 residues (ΔTMD0) (domain or fragment, UniProt Q9JJ59 143-762, looked up)
chain: DAEALEPGNEGFHGEGGAPAEQASGATLQKLLSYTKPDVAFLVAASFFLIVAALGETFLPYYTGRAIDSIVIQKSMDQFTTAVVVVCLLAIGSSLAAGIRGGIFTLVFARLNIRLRNCLFRSLVSQETSFFDENRTGDLISRLTSDTTMVSDLVSQNINIFLRNTVKVTGVVVFMFSLSWQLSLVTFMGFPIIMMVSNIYGKYYKRLSKEVQSALARASTTAEETISAMKTVRSFANEEEEAEVFLRKLQQVYKLNRKEAAAYMSYVWGSGLTLLVVQVSILYYGGHLVISGQMSSGNLIAFIIYEFVLGDCMESVGSVYSGLMQGVGAAEKVFEFIDRQPTMVHDGSLAPDHLEGRVDFENVTFTYRTRPHTQVLQNVSFSLSPGKVTALVGPSGSGKSSCVNILENFYPLQGGRVLLDGKPIGAYDHKYLHRVISLVSQEPVLFARSITDNISYGLPTVPFEMVVEAAQKANAHGFIMELQDGYSTETGEKGAQLSGGQKQRVAMARALVRNPPVLILDEATSALDAESEYLIQQAIHGNLQRHTVLIIAHRLSTVERAHLIVVLDKGRVVQQGTHQQLLAQGGLYAKLVQRQMLGLEHPLDYTASHKEPPSNTEHKA
notes: mouse TAPL (ABCB9), protein of 762 amino acids, lacking the N-terminal 142 residues (TMD0); Homodimer by the cryo-EM structures; A thrombin site stood between TAPL and eGFP-10XHis; residues of the site may be left at the C-terminus after cleavage; also called ABCB9; TAP-like; source: High Five (Hi5) insect cells, baculovirus; purified (anti-GFP DARPin agarose, on-column thrombin cleavage, gel …)
B2: Cy5-labeled 9-mer peptide RRYQNSTC(Cy-5)L (peptide)
peptide: RRYQNSTC(Cy5)L
notes: synthetic 9-mer peptide with a single cysteine for labeling; also called Cy5-labeled peptide; source: synthetic peptide (ANYGEN Co., Ltd.), labeled with Cy5, desalted
B3: 9-mer peptide RRYQKSTEL (peptide)
peptide: RRYQKSTEL
notes: short synthetic peptide known to be transported by human TAPL; source: synthetic peptide (ANYGEN Co., Ltd.)

Data set [1] deals with T1, mouse TAPL ΔTMD0 (Mus musculus, UniProt Q9JJ59).
T1 construct: thrombin cleavage site (C); eGFP (C); 10XHis (C); made in house; host or cells: Trichoplusia ni High Five (Hi5) insect cells, baculovirus (pVL1393)
T1 sequence (Q9JJ59 143-762): B1 chain
The data set can be described thus: Lipid-stimulated ATPase assay, DM-purified ΔTMD0. The data set is classed as biochemical. Here is the method: (§1) The ATPase activities of proteins obtained after various purification procedures were determined by NADH-coupled spectrophotometric assays. 10 μg of DM-purified or nanodisc-reconstituted protein was added to 140 μL of reaction buffer containing 50 mM HEPES–KOH pH 8.0, 60 μg/mL pyruvate kinase (Roche), 16 μg/mL lactate dehydrogenase (Roche), 10 mM phosphoenolpyruvate (Roche), 0.3 mM NADH, 3 mM ATP, 10 mM MgCl2, and 0.17% (w/v) DM in the presence or absence of 250 μM peptide. For proteins reconstituted into nanodiscs, DM was not added to the reaction buffer. For lipid-stimulated ATPase assays, the thin film of lipids was hydrated in 100 μL of buffer containing 50 mM HEPES–KOH pH 8.0 and 10 mM MgCl2 to yield a 10 mM solution. After sonication of the lipid solution for 10 min to decrease its turbidity, the reaction was initiated by adding varying concentrations of lipids to the mixture. ATP hydrolysis activity was monitored at 37 °C for 3 min by measuring the rate of decline of NADH absorbance at 340 nm. To inhibit ATP hydrolysis, the reaction mixture was incubated with 3 mM AMP-PNP or 8 mM NaF/2 mM BeSO4 for 5 min at RT. The kinetic parameters of ATP hydrolysis were calculated by fitting the initial rates of ATP hydrolysis to the Michaelis–Menten equation using PRISM 4.0 (GraphPad software).

Another data set addresses T2, TAPL Y405A mutant (Mus musculus, UniProt Q9JJ59, Y405A).
T2 construct: thrombin cleavage site (C); eGFP (C); 10XHis (C); made in house; host or cells: Trichoplusia ni High Five (Hi5) insect cells, baculovirus (pVL1393)
T2 sequence (Q9JJ59 143-762 Y405A): B1 chain with Y263A
The data set can be described thus: Lipid-stimulated ATPase assay, DM-purified Y405A mutant. The following applies: Y405A vs WT. In kind it is biochemical. Here is the method:
as §1

For data set [2], the target named is T1, mouse TAPL ΔTMD0. The data set can be described thus: Dithionite-based flip-flop (floppase) assay of NBD*-labeled lipids, ΔTMD0 proteoliposomes. The settings on record: 10% (mol/mol) unlabeled POPS, or presence of the 9-mer peptide. The data set is classed as biochemical. Here is the method: All lipids used in reconstitution were purchased from Avanti Polar Lipids, Inc. (purity > 99%). The in vitro flip–flop assay was performed using NBD* dye-labeled proteoliposomes as described previously. Briefly, E. coli polar lipids and egg PC were mixed in a 1:1 molar ratio, and 0.5% (mol/mol) NBD*-lipid was added. The lipid mixture was then dried under nitrogen gas. The NBD*-lipids used were 18:1-06:0 NBD*-PS (1-oleoyl-2-{6-[(7-nitro-2-1,3-benzoxadiazol-4-yl)amino]hexanoyl}-sn-glycero-3-phosphoserine), 18:1-06:0 NBD*-PC (1-oleoyl-2-{6-[(7-nitro-2-1,3-benzoxadiazol-4-yl)amino]hexanoyl}-sn-glycero-3-phosphocholine), 18:1-06:0 NBD*-PG (1-oleoyl-2-{6-[(7-nitro-2-1,3-benzoxadiazol-4-yl)amino]hexanoyl}-sn-glycero-3-[phospho-rac-(1-glycerol)]), 18:1-06:0 NBD*-PE (1-oleoyl-2-{6-[(7-nitro-2-1,3-benzoxadiazol-4-yl)amino]hexanoyl}-sn-glycero-3-phosphoethanolamine), and 25-NBD*-Cholesterol (25-[N-[(7-nitro-2-1,3-benzoxadiazol-4-yl)methyl]amino]−27-norcholesterol). Thin lipid films were solubilized in 20 mM HEPES–NaOH pH 8.0, 200 mM NaCl and 5% (v/v) glycerol, incubated at RT for 30 min and subjected to 5 freeze–thaw cycles. After extrusion with a Mini-Extruder at 65 °C, final lipid concentrations were determined by phosphorus assays. Briefly, 10 μL of extruded lipid was added to 10 μL of 2% (w/v) ammonium molybdate and 300 μL of concentrated perchloric acid. The mixture was heated at 250 °C for 30 min, then cooled to RT and mixed with 1.5 mL of 0.4% (w/v) ammonium molybdate and 250 μL of 9% (w/v) L-ascorbic acid. It was again heated at 100 °C for 6 min and cooled to RT. Lipid concentrations were calculated from the absorbance at 820 nm using a standard curve prepared with NaH2PO4 solution. After accurately determining the lipid concentration, DM-purified protein and 5 mM lipid suspension (solubilized in 5 mM DM) were mixed 1:25 (w/w). After incubation at 4 °C for 1.5 h, DM detergent was removed with 75 mg Bio-beads SM-2 by periodic gentle shaking for 1 h at 4 °C (Supplementary Fig. 5a). The beads were replaced once, followed by an additional incubation at 4 °C for 2 h to completely remove detergent. The resulting proteoliposomes were collected by ultracentrifugation at 200,000×g for 1.5 h at 4 °C.
To measure the flip–flop activity, 10 μL of 2 mM NBD*-labeled proteoliposomes were added to 100 μL of reaction buffer (20 mM HEPES–NaOH pH 8.0, 200 mM NaCl, 5 mM ATP and 5% (v/v) glycerol) in the presence of 2 mM MgCl2 (or NaCl), and incubated at 37 °C for 1 h. The mixture was transferred to a 96-well plate and time-dependent fluorescence (λex/λem = 460/538 nm) was recorded every 30 s for 26 min using a fluorescence spectrophotometer (Gemini XPS). After the baseline fluorescence had stabilized, 10 mM sodium dithionite was added to quench the fluorescence of NBD*-lipid present in the outer leaflets of the liposomes. The initial rapid drop and subsequent slow decline in fluorescence intensity were monitored. When a new steady state was established, 1% (v/v) Triton X-100 was added to completely disrupt the liposomes. The net percentage of NBD*-lipid translocated across the lipid bilayer was calculated from the following equation[72]: the percentage of protected NBD*-lipid in the inner leaflet = [(FD−F0)/(FT−F0)]×100, and that of accessible NBD*-lipid in the outer leaflet = [(FT−FD)/(FT−F0)]×100, where FT is the total fluorescence of the sample before the addition of dithionite, FD is the fluorescence of the sample after quenching with dithionite, and F0 is any residual fluorescence of the sample after solubilization with Triton X-100. Fluorescence values (FT, FD, F0) were calculated as the averages of 5 points on the respective plateau lines. The ΔTMD0-mediated lipid floppase activity was determined by subtracting the percentage of NBD*-lipid fluorescence measured in the presence of Na^+/ATP from that measured in the presence of Mg^2+/ATP.

Data set [3] has as its target T1, mouse TAPL ΔTMD0. The data set can be described thus: NADH-coupled ATPase assay, DM-purified ΔTMD0. The data set is classed as biochemical. The settings on record: in the presence of 9-mer peptide. Here is the method:
as §1

Data set [4] deals with the molecule itself. Put plainly: cryo-EM structure; ΔTMD0 in nanodiscs of E. coli polar lipids, no peptides or nucleotides; inward-facing, 3.4 Å.
The target in data set [5] is B1. Put plainly: MST; 0.2 μM Cy5-labeled peptide with serial 2-fold dilutions of DM-purified protein, 10 min at RT; Monolith NT.115 pico. The following applies: both partners purified.
The target in data set [6] is T3, mouse TAPL ΔTMD0 Y405A mutant (mouse, UniProt Q9JJ59 143-762, Y405A).
T3 construct: mouse TAPL (ABCB9) lacking the N-terminal 142 residues (TMD0), with Y405A; source: High Five (Hi5) insect cells, baculovirus; DM-purified; not shown: eGFP, C-terminal, cleaved; His10, C-terminal, cleaved
T3 sequence (looked up): B1 chain with Y263A
The description is as above. The settings on record: both partners purified.

The target of data set [7] is B1. Put plainly: cryo-EM structure; DM/CHS-purified ΔTMD0 with 1 mM 9-mer peptide, on ice for 30 min; inward-facing, 4.0 Å. The following applies: both partners purified.
The mark [8] stands for this setting: lipid stimulation, 3 mM ATP, means ± SEM.

Where a chain is given by its changes, count along the chain named. No end group written: not given here.

Turning to `CC(C)CCC[C@@H](C)[C@H]1CC[C@H]2[C@@H]3CC=C4C[C@@H](OC(=O)CCC(=O)O)CC[C@]4(C)[C@H]3CC[C@]12C` [CHS, cholesteryl hemisuccinate], the “Vmax relative to POPG-stimulated ATPase activity” value at mouse TAPL ΔTMD0 [1] (CHS vs POPG) was ~ 51%. Further, on mouse TAPL ΔTMD0 [1] (lipid stimulation, 3 mM ATP), the “maximal ATPase activity (turnover)” value turned out to be 80 min⁻¹. For the same molecule, at mouse TAPL ΔTMD0 [1] (setting [8]), the Km was 127 ± 28 µM and the “maximal ATPase activity (Vmax)” value is recorded as 589 ± 18 nmol/mg/min. Besides, on TAPL Y405A mutant, the “response of Y405A ATPase to lipid” value is “significantly reduced basal and lipid-stimulated ATPase activity”.
Consider `CCCCCCCC/C=C\CCCCCCCC(=O)O[C@H](COC(=O)CCCCCCCCCCCCCCC)COP(=O)(O)OC[C@H](N)C(=O)O` [POPS, 1-palmitoyl-2-oleoyl-sn-glycero-3-phospho-l-serine], for which the “maximal ATPase activity (turnover)” value on mouse TAPL ΔTMD0 [1] (lipid stimulation, 3 mM ATP) came to 109 min⁻¹. On mouse TAPL ΔTMD0 [1] (setting [8]), the “maximal ATPase activity (Vmax)” value is 808 ± 44 nmol/mg/min. Also, at TAPL Y405A mutant, the “response of Y405A ATPase to lipid” value was “significantly reduced basal and lipid-stimulated ATPase activity”. In addition, the “effect on translocation of NBD*-PS” value on mouse TAPL ΔTMD0 [2] is reported as “significantly inhibited”.
Take ADP·BeF3: the “ATP hydrolysis in presence of ATP analogs” value on mouse TAPL ΔTMD0 [3] was “prevented ATP hydrolysis”.
In the case of B1, in data set [4], the “stoichiometry N” value came to 2.
On to B2, for which the Kd was determined as 51.9 nM in data set [5] and 3800 nM in data set [6].
For the molecule B3, the binding result in data set [7] was “binds”.

Usually Km stands for the substrate concentration at which the rate is half of its maximum. The stoichiometry N is the number of molecules, sites or subunits per partner or assembly. What is called Kd is the equilibrium constant for the complex coming apart.
